Reference: article PMC10819171, “Development of Pleiotropic TrkB and 5-HT4 Receptor Ligands as Neuroprotective Agents” (Molecules, 2024)

Columns and labels:
[1] = biological target: T1, HA-tagged human 5-HT4 receptor (Homo sapiens, UniProt Q13639); test: cell-based; design: cAMP production by HTRF in transiently transfected COS-7 cells, 10 min, with RO-20-1724; details: COS-7; read-out: Top AMPc
T1 construct: gene HTR4; HA-tagged, transiently expressed in COS-7 cells
Method: COS-7 cells were purchased from ATCC (ATCC CRL-1651; LGC […], Molsheim, France). They were grown in Dulbecco’s modified Eagle medium (DMEM) supplemented with 10% dialyzed fetal calf serum (dFCS) and antibiotics. The cells were transiently transfected with the plasmid encoding HA-tagged human 5-HT4 receptor, then seeded in 96-wells plate (35,000 cells/well). Approximately 24 hrs after transfection, the cells were washed once with 200 µL of HBS (20 mM HEPES; 150 mM NaCl; 4.2 mM KCl; 0.9 mM CaCl2; 0.5 mM MgCl2; 0.1% glucose; 0.1% BSA) and, after HBS removal, exposed to the indicated concentrations of 5-HT4R ligands in the presence of 0.1 mM of the phosphodiesterase inhibitor RO-20-1724, at 37 °C in 100 µL of HBS. After 10 min, the cells were then lysed by the addition of the same volume of Triton-X100 (0.1%) during 30 min at 37 °C. Quantification of the cAMP production was performed by HTRF by using the cAMP—HTRF Gs Dynamic kit (Perkin Elmer, Codolet, France) according to the manufacturer’s instructions. 2.2.4.

[2] = biological target: T2, 5-HT4 receptor (Homo sapiens, UniProt Q13639); test: [3H]-GR113808 radioligand displacement at two concentrations; partial agonist reference in cAMP assay; assay type: binding; details: read-out: 5-HT4R (1 × 10^-6 M)
T2 construct: gene HTR4
T2 sequence (Q13639 whole entry): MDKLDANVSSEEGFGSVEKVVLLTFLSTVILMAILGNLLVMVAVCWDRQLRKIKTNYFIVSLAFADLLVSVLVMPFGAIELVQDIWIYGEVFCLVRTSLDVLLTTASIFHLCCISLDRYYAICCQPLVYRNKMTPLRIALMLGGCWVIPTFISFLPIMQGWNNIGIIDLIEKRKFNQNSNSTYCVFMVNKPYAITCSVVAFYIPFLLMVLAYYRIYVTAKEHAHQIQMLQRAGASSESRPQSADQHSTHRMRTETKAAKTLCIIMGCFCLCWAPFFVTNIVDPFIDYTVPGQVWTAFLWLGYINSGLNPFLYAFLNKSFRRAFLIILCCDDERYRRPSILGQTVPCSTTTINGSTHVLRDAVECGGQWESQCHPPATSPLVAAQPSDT

[3] = biological target: T2, 5-HT4 receptor; test: [3H]-GR113808 radioligand competition, five-point inhibition curves; partial agonist in cAMP HTRF assay; assay type: binding
[4] = biological target: T2, 5-HT4 receptor; test: [3H]-GR113808 radioligand displacement at two concentrations; assay type: binding; details: read-out: 5-HT4R (1 × 10^-6 M)

T1 sequence (Q13639 whole entry): as above

## CCCCN1CCC(CCC(=O)c2cc(Cl)c(N)cc2OC)CC1 [RS67333]
[1]
  Emax: 68%
[2]
  inhibition at 1 µM: 100%

## COc1cc(N)c(Cl)cc1C(=O)CCC1CCN(CCNC(=O)c2cc(C(=O)NCCO)cc(C(=O)NCCO)c2)CC1 [compound 8, N^1-(2-{4-[3-(4-amino-5-chloro-2-methoxyphenyl)-3-oxopropyl]piperidin-1-yl}ethyl)-N^3,N^5-bis(2-hydroxyethyl)benzene-1,3,5-tricarboxamide]
[3]
  Ki: 42.6 ± 4.1 nM
[1]
  Emax: 48%

## COc1cc(N)c(Cl)cc1C(=O)CCC1CCN(CCCNC(=O)c2cc(C(=O)NCCO)cc(C(=O)NCCO)c2)CC1 [compound 13, N^1-(3-(4-(3-(4-amino-5-chloro-2-methoxyphenyl)-3-oxopropyl)piperidin-1-yl)propyl)-N^3,N^5-bis(2-hydroxyethyl)benzene-1,3,5-tricarboxamide]
[4]
  inhibition at 1 µM: 82%

## COc1cc(N)c(Cl)cc1C(=O)CCC1CCN(CCOCCNC(=O)c2cc(C(=O)NCCO)cc(C(=O)NCCO)c2)CC1 [compound 19, N^1-(2-(2-(4-(3-(4-amino-5-chloro-2-methoxyphenyl)-3-oxopropyl)piperidin-1-yl)ethoxy)ethyl)-N^3,N^5-bis(2-hydroxyethyl)benzene-1,3,5-tricarboxamide]
[4]
  inhibition at 1 µM: 55%
